What all share (experiment): stopped-flow CO2 hydration
Common to all, as to type: biochemical

Assay [1] deals with T1, hCA I (Homo sapiens, UniProt P00915).
T1 construct: gene CA1; recombinant, obtained in-house
Particulars: read-out: Ki (nM)^b / hCA I. The text has this:
stopped-flow CO2 hydration on hCA I

Assay [2] has as its target T2, hCA XII (Homo sapiens, UniProt O43570).
T2 construct: gene CA12; recombinant, obtained in-house
To be noted: read-out: Ki (nM)^b / hCA XII. The text has this: stopped-flow CO2 hydration on hCA XII

The target of assay [3] is T3, hCA II (Homo sapiens, UniProt P00918).
T3 construct: gene CA2; recombinant, obtained in-house
To be noted: read-out: Ki (nM)^b / hCA II. The text has this: stopped-flow CO2 hydration on hCA II

For assay [4], the target named is T4, hCA IX (Homo sapiens, UniProt Q16790).
T4 construct: gene CA9; recombinant, obtained in-house
Particulars: read-out: Ki (nM)^b / hCA IX. The text has this:
stopped-flow CO2 hydration on hCA IX

Structures are written as SMILES. Counter-ions that a name gives are not always drawn.

T1 sequence (P00915 2-261): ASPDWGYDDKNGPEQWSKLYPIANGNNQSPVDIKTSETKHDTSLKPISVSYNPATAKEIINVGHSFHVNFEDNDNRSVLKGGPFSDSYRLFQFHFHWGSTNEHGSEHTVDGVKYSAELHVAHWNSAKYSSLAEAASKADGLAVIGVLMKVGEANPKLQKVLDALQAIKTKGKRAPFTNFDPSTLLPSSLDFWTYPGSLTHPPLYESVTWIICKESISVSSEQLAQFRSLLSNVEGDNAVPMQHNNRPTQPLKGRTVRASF
T2 sequence (O43570 25-354): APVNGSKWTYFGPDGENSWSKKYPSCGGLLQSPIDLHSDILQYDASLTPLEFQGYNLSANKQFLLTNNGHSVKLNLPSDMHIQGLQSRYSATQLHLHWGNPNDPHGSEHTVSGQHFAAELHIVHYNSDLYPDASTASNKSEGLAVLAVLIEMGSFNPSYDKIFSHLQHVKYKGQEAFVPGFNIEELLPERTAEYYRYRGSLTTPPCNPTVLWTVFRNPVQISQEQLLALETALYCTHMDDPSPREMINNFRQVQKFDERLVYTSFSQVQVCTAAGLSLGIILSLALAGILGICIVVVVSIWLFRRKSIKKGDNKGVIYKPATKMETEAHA

Regarding `NS(=O)(=O)N1CCC(O)CC1` [2a, 4-Hydroxypiperidine-1-sulphonamide], the Ki in assay [1] came to 75.6 nM; in assay [2] it was 25.3 nM; in assay [3], 42.7 nM; in assay [4] it was 54.2 nM.

For `CN1CCN(S(N)(=O)=O)CC1` [2b, 4-Methylpiperazine-1-sulphonamide], the Ki is 64.2 nM in assay [1], 52.5 nM in assay [2], 32.1 nM in assay [3] and 58.6 nM in assay [4].

Consider `NS(=O)(=O)NCc1ccc(F)cc1` [2c, N-(4-Fluorobenzyl)sulfamide], for which the Ki in assay [1] was 126 nM; in assay [2], 51.7 nM; in assay [3], 70.5 nM; in assay [4] it was 30.7 nM.

Consider `NS(=O)(=O)NC1CCCc2ccccc21` (centres unmarked) [2d, N-(1,2,3,4-Tetrahydronaphthalen-1-yl)sulfamide], for which the Ki in assay [1] came out at 121 nM; in assay [2] it was 59.7 nM; in assay [3] it was 42.6 nM; in assay [4], 36.8 nM.

For `NS(=O)(=O)NCC1CCCO1` (centres unmarked) [2e, N-((tetrahydrofuran-2-yl)methyl)sulfamide], the Ki turned out to be 38.4 nM in assay [1], 98 nM in assay [2], 63.4 nM in assay [3] and 92.7 nM in assay [4].

In the case of `COC(=O)C1CCCN1S(N)(=O)=O` (centres unmarked) [2f, Methyl sulfamoylprolinate], the Ki in assay [1] came out at 52.1 nM; in assay [2], 83.6 nM; in assay [3], 69.8 nM; in assay [4], 78.2 nM.

As to `CN1CCC(NS(N)(=O)=O)CC1` [2g, (1-Methylpiperidin-4-yl)sulfamide], the Ki in assay [1] was determined as 89.7 nM; in assay [2] it was 38.4 nM; in assay [3], 52.1 nM; in assay [4] it was 63.2 nM.

As to `NS(=O)(=O)N1CCC(c2ccccc2)CC1` [2h, 4-Phenylpiperidine-1-sulphonamide], the Ki is 359 nM in assay [1], 96.7 nM in assay [2], 120 nM in assay [3] and 58.2 nM in assay [4].

`CN(C)CCN(Cc1ccccc1)S(N)(=O)=O` [2i, Benzyl (2-(dimethylamino)ethyl)sulfamide]: the Ki in assay [1] was found to be 28.4 nM; in assay [2], 19.7 nM; in assay [3], 39.8 nM; in assay [4], 65.1 nM.

As for `NS(=O)(=O)NCc1cccnc1` [2j, (Pyridin-3-ylmethyl)sulfamide], the Ki in assay [1] was 98.5 nM; in assay [2], 16.5 nM; in assay [3] it was 90.2 nM; in assay [4], 29.5 nM.

For the compound `NS(=O)(=O)NCc1cccs1` [2k, (Thiophen-2-ylmethyl) sulfamide], the Ki in assay [1] was determined as 22.6 nM; in assay [2] it was 66.8 nM; in assay [3], 48.2 nM; in assay [4], 73.2 nM.

Turning to `CCN(CC)CCN(C)S(N)(=O)=O` [2l, (2-(Diethylamino)ethyl)(methyl)sulfamide], the Ki in assay [1] came out at 59.6 nM; in assay [2], 72.5 nM; in assay [3], 92.3 nM; in assay [4] it was 126 nM.

`CCOC(=O)C1CCN(S(N)(=O)=O)CC1` [2m, Ethyl 1-sulfamoylpiperidine-4-carboxylate]: the Ki worked out at 62.8 nM in assay [1], 25.9 nM in assay [2], 42.8 nM in assay [3] and 58.1 nM in assay [4].

Turning to `NS(=O)(=O)N1CCC(N2CCCCC2)CC1` [2n, [1,4'-Bipiperidine]-1'-sulphonamide], the Ki was determined as 497 nM in assay [1], 35.1 nM in assay [2], 99.3 nM in assay [3] and 72.5 nM in assay [4].

Regarding `NS(=O)(=O)N1CCOCC1` [2o, Morpholine-4-sulphonamide], the Ki stood at 59.2 nM in assay [1], 101 nM in assay [2], 66.9 nM in assay [3] and 82.1 nM in assay [4].

On to `NC(=O)C1CCN(S(N)(=O)=O)CC1` [2p, 1-Sulfamoylpiperidine-4-carboxamide], for which the Ki in assay [1] came out at 88.2 nM; in assay [2], 40.2 nM; in assay [3] it was 59.4 nM; in assay [4] it was 46.2 nM.

On to `NS(=O)(=O)N1CCNCC1` [2q, Piperazine-1-sulphonamide hydrochloride], for which the Ki was determined as 68.9 nM in assay [1], 100 nM in assay [2], 52.9 nM in assay [3] and 78.2 nM in assay [4].

With `CC1Cc2ccccc2N1S(N)(=O)=O` (centres unmarked) [2r, 2-Methylindoline-1-sulphonamide], the Ki turned out to be 868 nM in assay [1], 116 nM in assay [2], 316 nM in assay [3] and 94.7 nM in assay [4].

Turning to `NS(=O)(=O)Nc1ncccn1` [2s, N-(Pyrimidin-2-yl)sulfamide], the Ki in assay [1] amounted to 29.6 nM; in assay [2] it was 39.3 nM; in assay [3] it was 59.4 nM; in assay [4] it was 68 nM.

Regarding `NS(=O)(=O)N1CCCc2ccccc21` [2t, 3,4-Dihydroquinoline-1(2H)-sulphonamide], the Ki in assay [1] was 231 nM; in assay [2] it was 114 nM; in assay [3], 89.5 nM; in assay [4], 34.2 nM.

On to `NS(=O)(=O)Nc1cccc2ccccc12` [2u, N-(Naphthalen-1-yl)sulfamide], for which the Ki in assay [1] is 160 nM; in assay [2], 72.3 nM; in assay [3] it was 56.7 nM; in assay [4], 25.4 nM.

In the case of `NS(=O)(=O)N1CCc2ccccc21` [2v, Indoline-1-sulphonamide], the Ki in assay [1] came out at 723 nM; in assay [2], 95.7 nM; in assay [3], 472 nM; in assay [4] it was 102 nM.

Take `NS(=O)(=O)Nc1ccc(F)cc1F` [2w, N-(2,4-Difluorophenyl)sulfamide]: the Ki in assay [1] was 45.7 nM; in assay [2], 224 nM; in assay [3], 76.3 nM; in assay [4], 38.5 nM.

The values are drawn from paper PMC8933014, “Diversely substituted sulfamides for fragment-based drug discovery of carbonic anhydrase inhibitors: synthesis and inhibitory profile” (Journal of Enzyme Inhibition and Medicinal Chemistry, 2022).
